# From patent US20230226043A1 (priority 2020, published 2023)
# pEC50: −log10 of the molar value.
# How the values were obtained:
# SARS-CoV-2 [1] = conditions: 10 μM; cited from earlier work
# senescent BV2 cells = experiment: Viability of senescent BV2 cells (pretreated with TMZ), SRB assay; format: cell-based; conditions: for cell viability of senescent BV2 cells, single agent: single agent below the high concentrations (2 μM masitinib, 20 μM isoquercetin)
# Protocol: (§1) BV2 cells are retroviral-immortalized microglia-like cells, which are used as a model for cellular senescence. BV2 cells were cultured in Dulbecco's modified Eagle's medium supplemented with 10% heat-inactivated fetal bovine serum (hiFBS) and plated in 6-well multiwell plates for treatment and flow cytometry analysis.
# BV2 cells were treated with temozolomide (TMZ), an alkylating agent inducing DNA damage, in order to induce senescence of the cells. For senescence induction studies, cells were plated and treated twice with increasing doses (10-150 μM) of TMZ during 5 hours every 24 hours. After exposure of BV2 cells to two successive treatments with TMZ, their proliferation was reduced and the cells developed a characteristic senescent phenotype with enlarged size and flat-granulated shape. The senescent phenotype of BV2 cells after TMZ-induced genotoxicity was further confirmed by measuring the number of cells displaying β-gal activity, a well-recognized marker of cellular senescence. After the second TMZ-treatment, flow cytometry analysis was thus carried out using a 5-Dodecanoylaminofluorescein Di-β-D-Galactopyranoside (C12FDG) kit to measure β-galactosidase activity by the alkalinization of lysosomes as described by the manufacturer's instructions (Thermo Fisher Scientific, #D2893). TMZ induced a dose-dependent increase in the number β-gal+ cells. Up to 60% of β-gal+BV2 cells, i.e., senescent cells, were obtained at a TMZ concentration of 100 μM (data not shown).
# (§2) For cellular viability analysis of non-senescent cells (BV2 cells) and senescent cells (BV2 cells pretreated with TMZ), cells were plated in 96-well multiwell plates during 72 hours. […] After 48 hours of treatment, cell viability was analyzed by sulforhodamine B (SRB) assay. The optical density (OD) of each well was read in a 96-well plate reader at 540 nm. The OD of the SRB solution is directly proportional to the cell number.
# non-senescent BV2 cells = experiment: Viability of non-senescent BV2 cells, sulforhodamine B (SRB) assay; format: cell-based; conditions: 48 h exposure, masitinib 0.1-2 μM and/or isoquercetin 1-20 μM
# Protocol: as §1, §2
# [2] = tested on: Chikungunya virus (CHIKV); experiment: Chikungunya virus infection; format: cell-based; conditions: 10 μM, n=3, p>0.07
# SARS-CoV-2 [3] = experiment: SARS-CoV-2 intranasal challenge of K18-hACE2 mice; conditions: bid, ip, vs PBS; for clinical score: 1-6 days post infection
# measles virus (MeV) = experiment: Measles virus inhibition assay in Vero cells, luciferase; format: cell-based; conditions: 10 μM, n=3, p>0.07
# Protocol: Vero cells were infected with a luciferase-expressing measles virus at an MOI of 0.01 for 90 minutes. The inoculum was removed and added fresh medium containing masitinib or DMSO to the cells for further culture. Three days later, firefly luciferase activity was measured by adding 0.5 mM of D-Luciferin to each well and was quantified with an Infinite M200 Pro multimode microplate reader.
# influenza A virus (IAV) = experiment: Influenza A infection of MDCK-SIAT1-TMPRSS2 cells; format: cell-based, Influenza A/Puerto Rico/8/1934 (PR8); conditions: 10 μM, n=3, p>0.07
# Protocol: MDCK-SIAT1-TMPRSS2 cells were infected with Influenza A/Puerto Rico/8/1934 (PR8) at an MOI of 0.01 TCID50/cell. Following a 1 hour adsorption, virus was removed and the cells were washed. […] Supernatants were harvested and clarified at 20 hours post infection. The supernatants were titrated using TCID on MDCK-SIAT1-TMPRSS2 cells.
# [4] = tested on: lymphocytic choriomeningitis virus (LCMV); format: cell-based; conditions: 10 μM, n=2, p>0.07
# OC43 [5] = experiment: Drug repurposing screen, OC43 nucleoprotein staining in A549-mRuby cells; format: cell-based, human beta coronavirus OC43 (HCoV-OC43); conditions: for % staining of OC43: normalized to no-drug controls in the same plate
# Protocol: (§3) Cells were seeded in a final volume of […] with DMEM+10% BCS. […] All the following steps were performed at room temperature. […] The screen was performed twice.
# [6] = molecular target: picornaviruses 3C protease (Coxsackievirus B3, UniProt P03313); experiment: 3C protease activity assay, luciferase reporter in Huh7 cells; conditions: n=6, p-value=7×10-6
# SARS-CoV-2 [7] = experiment: SARS-CoV-2 progeny production, plaque titers on Vero E6 cells; format: cell-based; conditions: 10 μM; for decrease of SARS-CoV-2 progeny production: 2 h pre-treatment, MOI 0.5, supernatant 2 days
# Protocol: For SARS-CoV-2 plaque titers, cell supernatants from the infection described above were serially diluted (10-fold steps were used) and used to infect Vero E6 cells for 1 hour. Inoculum was removed and 1.25% methylcellulose DMEM solution was added to the cells and incubated for 3 days. Plates were fixed in 1:10 formalin for 1 hour, stained with crystal violet for 1 hour and were counted to determine plaque forming units (PFU)/ml.
# A549-mRuby cells = experiment: Cell growth in the drug screen (cell numbers day 4 / day 0); format: cell-based, human
# Protocol: as §3
# OC43 [8] = experiment: OC43 replication in primary human airway epithelial cells; format: cell-based, human beta coronavirus OC43 (HCoV-OC43); conditions: Betacoronavirus 1, OC43, Epithelial cell, read-out: EC50, inhibition of OC43 replication
# [9] = tested on: human rhinovirus 2 (HRV2); experiment: Picornavirus infection of Huh7 cells, plaque titration; format: cell-based; conditions: 10 M [sic] masitinib, MOI 0.01, 24 h
# Protocol: (§4) Prior to infection, Huh7 cells were pretreated for two hours. Virus was diluted using serum-free DMEM (SFM) to achieve an MOI of 0.01. Cell supernatants (collected at 24 hours post infection) were dilutions in SFM and used to inoculate Vero cells for 10-15 min at 37 C. Cells were incubated for 2 days at 37 C after overlaying them DMEM containing 2% NBCS and 0.8% agarose. […] The number of plaque forming units (PFU/per milliliter) were then calculated.
# [10] = tested on: human rhinovirus 16 (HRV16); experiment: as above; format: cell-based; conditions: 10 M [sic] masitinib, MOI 0.01, 24 h
# Protocol: as §4
# coxsackievirus B3 (CVB3) = experiment: as above; format: cell-based; conditions: 10 M [sic] masitinib, MOI 0.01, 24 h
# Protocol: as §4
# [11] = tested on: human rhinovirus 14 (HRV14); experiment: as above; format: cell-based; conditions: 10 M [sic] masitinib, MOI 0.01, 24 h
# Protocol: as §4
# OC43 [12] = experiment: Dose-response analysis of OC43 infection in A549-mRuby cells; format: cell-based, human beta coronavirus OC43 (HCoV-OC43); conditions: Betacoronavirus 1, OC43, A549, 48 h, read-out: EC50 against OC43 infection
# Protocol: Dose-response analysis of OC43 infection was done similarly to the drug screening, except cells were seeded at a concentration of 5,000 cells per well and the media contained 2% BCS instead of 10% BCS. OC43 staining was performed 2 days after infection and analyzed similarly to what was described for the drug screening. A sigmoid fit was used to extract EC50 values using Matlab.
# [13] = 25 or 50 mg/kg, 4 and 6 days post infection
# picornaviruses 3C protease, sequence (P03313 1541-1723 limits assumed): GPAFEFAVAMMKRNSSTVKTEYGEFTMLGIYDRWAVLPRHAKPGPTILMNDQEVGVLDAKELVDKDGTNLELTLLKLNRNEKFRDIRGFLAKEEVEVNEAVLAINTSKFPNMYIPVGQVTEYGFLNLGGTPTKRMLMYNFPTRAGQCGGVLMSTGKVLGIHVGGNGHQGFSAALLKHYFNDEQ
compound,measurement,setting,value
O=CC(CC1CCNC1=O)NC(=O)C(CC1CCCCC1)NC(=O)c1cc2ccccc2[nH]1 (stereo not shown) [11a],inhibition of SARS-CoV-2 progeny production,SARS-CoV-2 [1],2 logs
O=CC(CC1CCNC1=O)NC(=O)C(Cc1cccc(F)c1)NC(=O)c1cc2ccccc2[nH]1 (stereo not shown) [11b],inhibition of SARS-CoV-2 progeny production,SARS-CoV-2 [1],2 logs
"O=c1c(O[C@@H]2O[C@H](CO)[C@@H](O)[C@H](O)[C@H]2O)c(-c2ccc(O)c(O)c2)oc2cc(O)cc(O)c12 [isoquercetin, 2-(3,4-dihydroxyphenyl)-5,7-dihydroxy-3-[(2S,3R,4S,5S,6R)-3,4,5-trihydroxy-6-(hydroxymethyl)oxan-2-yl]oxychromen-4-one]",cytotoxicity at 20 µM,"senescent BV2 cells; Mus musculus, BV-2, 20 μM isoquercetin alone, 48 h, TMZ-induced senescent BV2 cells, read-out: reduction in senescent cell viability",~25%
same,"cell viability of senescent BV2 cells, single agent",senescent BV2 cells,modest reduction in cell viability
same,cell viability of non-senescent proliferating BV2 cells,non-senescent BV2 cells,no significant change in cell viability
"Cc1ccc(NC(=O)c2ccc(CN3CCN(C)CC3)cc2)cc1Nc1nc(-c2cccnc2)cs1 [masitinib, 4-(4-methylpiperazin-1-ylmethyl)-N-[4-methyl-3-(4-pyridin-3ylthiazol-2-ylamino)phenyl]benzamide]",effect on cells infected by Chikungunya virus (CHIKV),[2],did not show a significant effect
same,clinical score,SARS-CoV-2 [3]; 25 mg/kg,significant decrease
same,clinical score,SARS-CoV-2 [3]; 50 mg/kg,significant decrease
same,SARS-CoV-2 viral load in the lung,SARS-CoV-2 [3]; [13],significant decrease
same,SARS-CoV-2 viral load in the nasal turbinates,SARS-CoV-2 [3]; [13],significant decrease
same,effect on cells infected by measles virus (MeV),measles virus (MeV),did not show a significant effect
same,effect on cells infected by influenza A virus (IAV),influenza A virus (IAV),did not show a significant effect
same,effect on cells infected by lymphocytic choriomeningitis virus (LCMV),[4],did not show a significant effect
same,mean % staining of OC43,"OC43 [5]; mean of two screen repeats, normalized to no-drug controls (=100), drug at 10 PM as printed, day 4",12.2%
same,% staining of OC43,OC43 [5]; screen repeat #1,14.4%
same,% staining of OC43,OC43 [5]; screen repeat #2,10.1%
same,activity of the 3C protease in cells,[6],significantly inhibited
same,decrease of SARS-CoV-2 progeny production,SARS-CoV-2 [7],over 5 logs
same,decrease of SARS-CoV-2 progeny production,SARS-CoV-2 [7]; listed as Masitinib,> 5 logs
same,reduction in viral titers (SARS-CoV-2 progeny),"SARS-CoV-2 [7]; n=3, p<0.001",statistically significant
same,number of cells at day 4 divided by number of cells at day 0,A549-mRuby cells; screen repeat #1,4.3
same,number of cells at day 4 divided by number of cells at day 0,A549-mRuby cells; screen repeat #2,4.7
same,pEC50,OC43 [8],6.24
same,cytotoxicity at 2 µM,"senescent BV2 cells; Mus musculus, BV-2, 48 h, read-out: reduction in senescent cell viability",~25%
same,"cell viability of senescent BV2 cells, single agent",senescent BV2 cells,modest reduction in cell viability
same,replication of human rhinovirus 2 (HRV2),[9],effective in blocking the replication
same,replication of human rhinovirus 16 (HRV16),[10],effective in blocking the replication
same,replication of coxsackievirus B3 (CVB3),coxsackievirus B3 (CVB3),effective in blocking the replication
same,replication of human rhinovirus 14 (HRV14),[11],effective in blocking the replication
same,pEC50,OC43 [12],5.68
same,cell viability of non-senescent proliferating BV2 cells,non-senescent BV2 cells,no significant change in cell viability
